Measurements: PubChem BioAssay AID1259407 (Chemical Carcinogenesis Research Information System (CCRIS), 2018)
The source made the active and inactive calls. How the calls were made is not given here.

Tested on: CCRIS mutagenicity, Ames/micronucleus/aberration tests
Assay: CCRIS mutagenicity studies
[1] = Test System: AMES SALMONELLA TYPHIMURIUM, Strain/Indicator: TA98, Metabolic Activation: NONE, Method: STANDARD PLATE
[2] = Test System: AMES SALMONELLA TYPHIMURIUM, Strain/Indicator: TA100, Metabolic Activation: NONE, Method: STANDARD PLATE
[3] = Test System: AMES SALMONELLA TYPHIMURIUM, Strain/Indicator: TA98, Metabolic Activation: NONE, Method: PREINCUBATION
[4] = Test System: AMES SALMONELLA TYPHIMURIUM, Strain/Indicator: TA1535, Metabolic Activation: NONE, Method: PREINCUBATION
[5] = Test System: AMES SALMONELLA TYPHIMURIUM, Strain/Indicator: TA1535, Metabolic Activation: NONE, Method: STANDARD PLATE
[6] = Test System: AMES SALMONELLA TYPHIMURIUM, Strain/Indicator: TA98, Metabolic Activation: RAT, LIVER, S-9, AROCLOR 1254, Method: STANDARD PLATE

Measured: mutagenic call

CC1(C)[C@H](C(=O)OCc2cccc(Oc3ccccc3)c2)[C@@H]1C=C(Cl)Cl
inactive: Test System: AMES SALMONELLA TYPHIMURIUM, Strain/Indicator: TA97, Metabolic Activation: NONE, Method: STANDARD PLATE inactive; negative | Test System: AMES SALMONELLA TYPHIMURIUM, Strain/Indicator: TA97, Metabolic Activation: RAT, LIVER, S-9, PHENOBARBITONE, Method: STANDARD PLATE inactive; negative | [1] inactive; negative | Test System: AMES SALMONELLA TYPHIMURIUM, Strain/Indicator: TA98, Metabolic Activation: RAT, LIVER, S-9, PHENOBARBITONE, Method: STANDARD PLATE inactive; negative | [2] inactive; negative | Test System: AMES SALMONELLA TYPHIMURIUM, Strain/Indicator: TA100, Metabolic Activation: RAT, LIVER, S-9, PHENOBARBITONE, Method: STANDARD PLATE inactive; negative | Test System: AMES SALMONELLA TYPHIMURIUM, Strain/Indicator: TA104, Metabolic Activation: NONE, Method: STANDARD PLATE inactive; negative | Test System: AMES SALMONELLA TYPHIMURIUM, Strain/Indicator: TA104, Metabolic Activation: RAT, LIVER, S-9, PHENOBARBITONE, Method: STANDARD PLATE inactive; negative

CCOCCOC(=O)/C=C/c1ccc(OC)cc1
inactive: Test System: AMES SALMONELLA TYPHIMURIUM, Strain/Indicator: TA98, Metabolic Activation: HAMSTER, LIVER, S-9, AROCLOR 1254 (10%), Method: PREINCUBATION inactive; negative | [3] inactive; negative | Test System: AMES SALMONELLA TYPHIMURIUM, Strain/Indicator: TA98, Metabolic Activation: RAT, LIVER, S-9, AROCLOR 1254 (10%), Method: PREINCUBATION inactive; negative | Test System: AMES SALMONELLA TYPHIMURIUM, Strain/Indicator: TA100, Metabolic Activation: HAMSTER, LIVER, S-9, AROCLOR 1254 (10%), Method: PREINCUBATION inactive; negative | Test System: AMES SALMONELLA TYPHIMURIUM, Strain/Indicator: TA100, Metabolic Activation: NONE, Method: PREINCUBATION inactive; negative | Test System: AMES SALMONELLA TYPHIMURIUM, Strain/Indicator: TA100, Metabolic Activation: RAT, LIVER, S-9, AROCLOR 1254 (10%), Method: PREINCUBATION inactive; negative | Test System: AMES SALMONELLA TYPHIMURIUM, Strain/Indicator: TA1535, Metabolic Activation: HAMSTER, LIVER, S-9, AROCLOR 1254 (10%), Method: PREINCUBATION inactive; negative | [4] inactive; negative | Test System: AMES SALMONELLA TYPHIMURIUM, Strain/Indicator: TA1535, Metabolic Activation: RAT, LIVER, S-9, AROCLOR 1254 (10%), Method: PREINCUBATION inactive; negative | Test System: AMES SALMONELLA TYPHIMURIUM, Strain/Indicator: TA1537, Metabolic Activation: HAMSTER, LIVER, S-9, AROCLOR 1254 (10%), Method: PREINCUBATION inactive; negative | Test System: AMES SALMONELLA TYPHIMURIUM, Strain/Indicator: TA1537, Metabolic Activation: NONE, Method: PREINCUBATION inactive; negative | Test System: AMES SALMONELLA TYPHIMURIUM, Strain/Indicator: TA1537, Metabolic Activation: RAT, LIVER, S-9, AROCLOR 1254 (10%), Method: PREINCUBATION inactive; negative

COc1cccc2c1CC([N+](=O)[O-])c1ccc3c(c1-2)OCO3 (configuration not stated)
inactive: Test System: AMES SALMONELLA TYPHIMURIUM, Strain/Indicator: D3052, Metabolic Activation: NONE, Method: STANDARD PLATE inactive; negative | Test System: AMES SALMONELLA TYPHIMURIUM, Strain/Indicator: D3052, Metabolic Activation: RAT, LIVER, S-9, PHENOBARBITAL, Method: STANDARD PLATE inactive; negative | Test System: AMES SALMONELLA TYPHIMURIUM, Strain/Indicator: G46, Metabolic Activation: NONE, Method: STANDARD PLATE inactive; negative | Test System: AMES SALMONELLA TYPHIMURIUM, Strain/Indicator: G46, Metabolic Activation: RAT, LIVER, S-9, PHENOBARBITAL, Method: STANDARD PLATE inactive; negative | Test System: AMES SALMONELLA TYPHIMURIUM, Strain/Indicator: TA1978, Metabolic Activation: NONE, Method: STANDARD PLATE inactive; negative | Test System: AMES SALMONELLA TYPHIMURIUM, Strain/Indicator: TA1978, Metabolic Activation: RAT, LIVER, S-9, PHENOBARBITAL, Method: STANDARD PLATE inactive; negative
active: [1] active; positive | Test System: AMES SALMONELLA TYPHIMURIUM, Strain/Indicator: TA98, Metabolic Activation: RAT, LIVER, S-9, PHENOBARBITAL, Method: STANDARD PLATE active; positive | [2] active; positive | Test System: AMES SALMONELLA TYPHIMURIUM, Strain/Indicator: TA100, Metabolic Activation: RAT, LIVER, S-9, PHENOBARBITAL, Method: STANDARD PLATE active; positive | [5] active; positive | Test System: AMES SALMONELLA TYPHIMURIUM, Strain/Indicator: TA1535, Metabolic Activation: RAT, LIVER, S-9, PHENOBARBITAL, Method: STANDARD PLATE active; positive

Cc1cc2c(nc(N)n2C)c2ncc(-c3ccccc3)nc12
active: [6] active; positive

O=[N+]([O-])c1ccc(-c2nc(NCCO)c3ccccc3n2)s1
active: [1] active; positive | [2] active; positive

Nc1ccccc1C(F)(F)F
inactive: [1] inactive; negative | [6] inactive; negative | [2] inactive; negative | Test System: AMES SALMONELLA TYPHIMURIUM, Strain/Indicator: TA100, Metabolic Activation: RAT, LIVER, S-9, AROCLOR 1254, Method: STANDARD PLATE inactive; negative | [5] inactive; negative | Test System: AMES SALMONELLA TYPHIMURIUM, Strain/Indicator: TA1535, Metabolic Activation: RAT, LIVER, S-9, AROCLOR 1254, Method: STANDARD PLATE inactive; negative | Test System: AMES SALMONELLA TYPHIMURIUM, Strain/Indicator: TA1537, Metabolic Activation: NONE, Method: STANDARD PLATE inactive; negative | Test System: AMES SALMONELLA TYPHIMURIUM, Strain/Indicator: TA1537, Metabolic Activation: RAT, LIVER, S-9, AROCLOR 1254, Method: STANDARD PLATE inactive; negative | Test System: AMES SALMONELLA TYPHIMURIUM, Strain/Indicator: TA1538, Metabolic Activation: NONE, Method: STANDARD PLATE inactive; negative | Test System: AMES SALMONELLA TYPHIMURIUM, Strain/Indicator: TA1538, Metabolic Activation: RAT, LIVER, S-9, AROCLOR 1254, Method: STANDARD PLATE inactive; negative

CC(=O)OCN(N=O)c1ccccc1
active: Test System: AMES SALMONELLA TYPHIMURIUM, Strain/Indicator: TA1537, Metabolic Activation: NONE, Method: LIQUID INCUBATION active; positive

O[C@H]1[C@H]2O[C@H]2C=C[C@@H]1O
inactive: Test System: AMES SALMONELLA TYPHIMURIUM, Strain/Indicator: TA97, Metabolic Activation: NONE, Method: PREINCUBATION inactive; negative | [3] inactive; negative
active: [4] active; positive

COc1ccc(NC(=O)c2csc([N+](=O)[O-])c2)cc1
active: [1] active; positive | [2] active; positive

O.O.O.O.O.O.O.[Cl-].[Cl-].[Cl-].[Fe+3]
inactive: Test System: AMES SALMONELLA TYPHIMURIUM, Strain/Indicator: TA102, Metabolic Activation: NONE, Method: STANDARD PLATE inactive; negative | Test System: Mouse lymphoma, Strain/Indicator: L5178Y (tk+/tk-), Metabolic Activation: None, Method: Suspension/plate inactive; negative | Test System: Mouse lymphoma, Strain/Indicator: L5178Y (tk+/tk-), Metabolic Activation: Rat, Liver, S-9, Aroclor 1254, Method: Suspension/plate inactive; inconclusive (previous evaluation: negative)

O=CN(O)c1ccc2ccccc2c1
active: [3] active; positive | Test System: AMES SALMONELLA TYPHIMURIUM, Strain/Indicator: TA98, Metabolic Activation: RAT, LIVER, CYTOSOL, Method: PREINCUBATION active; positive | Test System: AMES SALMONELLA TYPHIMURIUM, Strain/Indicator: TA98, Metabolic Activation: RAT, LIVER, MICROSOMES, Method: PREINCUBATION active; positive
